Assay in all cases: inhibition of tumour cell growth, NCI panel, 48 h
For assay [1], the system named is NCI-H460 lung.
In assay [2] the test system is SN12C renal.
The test system of assay [3] is SR leukemia.
In assay [4] the test system is NCI/ADR-RES ovarian.
Assay [5] deals with SK-MEL-5 melanoma.
For assay [6], the system named is SF-539 CNS.
The test system of assay [7] is RPMI-8226 leukemia.
Assay [8] deals with IGROV1 ovarian.
Assay [9] has as its system NCI-H522 lung.
The test system of assay [10] is K-562 leukemia.
Assay [11] concerns SK-MEL-28 melanoma.
Assay [12] concerns A498 renal.
For assay [13], the system named is HOP-92 NSCLC.
The test system of assay [14] is MDA-N.
In assay [15] the test system is HOP-62 NSCLC.
In assay [16] the test system is OVCAR-3 ovarian.
Assay [17] concerns OVCAR-4 ovarian.
The test system of assay [18] is TK-10 renal.
The test system of assay [19] is MDA-MB-231 breast.
In assay [20] the test system is SW-620 colon.

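Assay format: 96-well plates, 48-hour exposure. Definition used: TGI = concentration required for complete inhibition of growth.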 Bounds are passed on as bounds.

Turning to `COC(NC(=O)Nc1ccc(C)cc1)(C(F)(F)F)C(F)(F)F`, the TGI in assay [1] was more than 100 µM; in [2] it was more than 100 µM; in [3], more than 100 µM; in assay [4], 84.7 µM; in assay [5] it was 30.6 µM; in assay [6], more than 100 µM. Besides, the TGI in assay [7] was 74.8 µM; in [8], more than 100 µM; in assay [9] it was 60.1 µM; in assay [10], more than 100 µM; in [11], more than 100 µM; in assay [12], 90.1 µM. Also, the TGI in assay [13] was 93.3 µM; in assay [14], 94.6 µM; in assay [15], more than 100 µM; in assay [16], more than 100 µM; in [17] it was more than 100 µM; in assay [18], more than 100 µM. The TGI in assay [19] was 99 µM; in assay [20] it was more than 100 µM.

With `C#CC1(O)CCC2[C@@H]3CCc4cc(Oc5nc(F)nc(-c6c(C)c(C(=O)OCC)n7ccccc67)n5)ccc4C3CC[C@@]21C` (stereo partly specified), the TGI in assay [1], in assay [2], in [3], in [4], in assay [5] and in [6] was more than 100 µM each time. Also, the TGI in [7], in assay [8], in [9], in assay [10], in [11] and in assay [12] was more than 100 µM in each case. Also, the TGI in assay [13], in assay [14], in [15], in [16], in assay [17] and in assay [18] was more than 100 µM each time. Also, the TGI in [19] and in assay [20] was more than 100 µM each time.

Turning to `Cc1nc(-c2ccccc2)cn2c1nc1ccccc12`, the TGI in assay [1] was 37.1 µM; in assay [2], more than 84.7 µM; in assay [3] it was more than 100 µM; in assay [4] it was 55.7 µM; in [5] it was 28.6 µM; in assay [6], 53 µM. Besides, the TGI in assay [7] was more than 100 µM; in assay [8], 57.1 µM; in [9], more than 66.8 µM; in assay [10], more than 100 µM; in assay [11] it was 72.8 µM; in [12], 23.5 µM. Also, the TGI in [13] is 62.6 µM; in assay [14] it was 43.5 µM; in assay [15] it was 49.6 µM; in assay [16], 69.9 µM; in assay [17], 65.4 µM; in assay [18], more than 74.7 µM. The TGI in [19] is more than 100 µM; in [20] it was 99.1 µM.

On to `CC(NC1=NCCO1)c1ccccc1Cl` (stereo unspecified), for which the TGI in assay [1], in assay [2], in [3], in assay [4], in assay [5] and in assay [6] was more than 100 µM each time. In addition, the TGI in assay [7], in [8], in assay [9], in assay [10], in [11] and in assay [12] was more than 100 µM throughout. The TGI in [13] was 73 µM; in [14] it was more than 100 µM; in assay [15] it was more than 100 µM; in [16], more than 100 µM; in assay [17] it was more than 100 µM; in [18] it was more than 100 µM. The TGI in assay [19] and in [20] was more than 100 µM throughout.

Consider `NS(=O)(=O)c1ccc(NC(=O)N/N=C/c2ccccc2[N+](=O)[O-])cc1`, for which the TGI in assay [1], in assay [2], in [3], in [4], in [5] and in assay [6] was more than 100 µM in each case. The TGI in assay [7], in assay [8], in [9], in assay [10], in assay [11] and in assay [12] was more than 100 µM each time. Besides, the TGI is more than 100 µM in assay [13]; 39 µM in assay [14]; more than 100 µM in [15]; more than 100 µM in assay [16]; more than 100 µM in [17]; more than 100 µM in assay [18]. Moreover, the TGI in assay [19] and in assay [20] was more than 100 µM throughout.

Turning to `C(=N\c1nc2cc3sc(/N=C/c4ccccc4)nc3cc2s1)/c1ccccc1`, the TGI in [1], in [2], in assay [3], in [4], in [5] and in assay [6] was more than 100 µM throughout. For the same compound, the TGI was more than 100 µM in assay [7]; more than 100 µM in [8]; 97.4 µM in assay [9]; more than 100 µM in assay [10]; more than 100 µM in assay [11]; more than 100 µM in [12]. In addition, the TGI in assay [13], in [14], in assay [15], in [16], in [17] and in assay [18] was more than 100 µM throughout. Moreover, the TGI in assay [19] and in [20] was more than 100 µM in each case.

With `Cc1ncn(-c2ccccc2O)c1C`, the TGI in assay [2], in assay [3], in assay [4], in assay [5], in [6] and in [7] was more than 100 µM each time. Besides, the TGI in assay [8], in assay [9], in assay [10], in assay [11], in assay [12] and in [13] was more than 100 µM each time. Moreover, the TGI in [14], in [15], in assay [16], in assay [17], in assay [18] and in assay [19] was more than 100 µM in each case. In addition, in assay [20], the TGI was more than 100 µM.

In the case of `COc1ccc(/[N+]([O-])=C/c2ccc(OC(=S)S)c(OC)c2)cc1`, the TGI in [1] was more than 100 µM; in [2], more than 100 µM; in assay [3], 63.5 µM; in assay [4] it was 92.3 µM; in [5], 93.2 µM; in assay [6] it was more than 100 µM. For the same compound, the TGI in [7], in assay [8], in [9], in [10], in [11] and in assay [12] was more than 100 µM in each case. Also, the TGI is 81 µM in [13]; more than 100 µM in [14]; more than 100 µM in assay [15]; more than 100 µM in [16]; 49 µM in assay [17]; more than 100 µM in assay [18]. For the same compound, the TGI in assay [19] and in assay [20] was more than 100 µM throughout.

For `COC(=O)C1=C(C)NC(=O)N2[C@@H](CCOCc3ccccc3)CC[C@@H]12`, the TGI in assay [1], in assay [3], in assay [4], in assay [5], in assay [6] and in [7] was more than 50 µM each time. Moreover, the TGI in assay [8], in assay [9], in assay [10], in assay [11], in assay [12] and in assay [13] was more than 50 µM each time. Further, the TGI in assay [14], in assay [15], in assay [16], in assay [17], in [18] and in assay [19] was more than 50 µM each time. For the same compound, the TGI in assay [20] was more than 50 µM.

In the case of `Nc1ncnc2c1ncn2[C@H]1C=C[C@@H](NO)C1`, the TGI in assay [1], in assay [2], in assay [3], in assay [4], in assay [5] and in assay [6] was more than 100 µM throughout. Further, the TGI in assay [7], in [8], in assay [9], in assay [10], in assay [11] and in assay [12] was more than 100 µM throughout. Moreover, the TGI in assay [13], in assay [14], in [15], in assay [16], in assay [17] and in assay [18] was more than 100 µM throughout. Besides, the TGI in assay [19] and in assay [20] was more than 100 µM throughout.

On to `CC(=O)Nc1nc(C)c(S(=O)(=O)NC(=O)NC2NC(=O)NC2=O)s1` (stereo unspecified), for which the TGI in assay [1], in assay [2], in assay [3], in [4], in assay [5] and in [6] was more than 100 µM in each case. Besides, the TGI in [7], in assay [8], in assay [9], in assay [10], in [11] and in assay [12] was more than 100 µM throughout. For the same compound, the TGI in [13], in assay [14], in assay [15], in [16], in [17] and in [18] was more than 100 µM each time. Also, the TGI in [19] and in assay [20] was more than 100 µM in each case.

Turning to `O=S(=O)(O)c1ccc(N=Nc2ccccc2)cc1`, the TGI in [1], in [2], in assay [3], in assay [4], in assay [5] and in assay [6] was more than 100 µM in each case. Moreover, the TGI in assay [7], in assay [8], in assay [9], in [10], in assay [11] and in [12] was more than 100 µM in each case. Also, the TGI in assay [13], in assay [14], in [15], in [16], in assay [17] and in assay [18] was more than 100 µM each time. For the same compound, the TGI in [19] and in [20] was more than 100 µM throughout.

For `CO/C=C(/C(=O)OC)[C@@H]1C[C@@H]1c1ccc2ccccc2c1`, the TGI in [1] was more than 100 µM; in assay [2], more than 100 µM; in assay [3] it was 44.7 µM; in [4], 65.3 µM; in assay [5], 30.3 µM; in assay [6], 44.2 µM. Further, the TGI is 41.9 µM in [7]; 70.7 µM in assay [8]; 28.5 µM in assay [9]; more than 100 µM in assay [10]; 81.4 µM in [11]; more than 100 µM in assay [12]. Besides, the TGI was 72.9 µM in [13]; 65.2 µM in assay [14]; more than 100 µM in assay [15]; 73.9 µM in assay [16]; 77.1 µM in assay [17]; more than 100 µM in assay [18]. Besides, the TGI in [19] was more than 100 µM.

Turning to `Fc1cc(C2=Nn3c(COc4ccccc4Cl)nnc3S/C2=C\c2ccc(Cl)cc2)c(Cl)cc1Cl`, the TGI in assay [1] was more than 100 µM; in assay [3] it was more than 100 µM; in assay [4], 30.1 µM; in assay [5], 19 µM; in assay [6] it was more than 100 µM; in assay [7], more than 100 µM. Moreover, the TGI in [8] was 33 µM; in assay [9], 22.6 µM; in assay [10] it was more than 100 µM; in [11] it was 13.4 µM; in assay [12] it was 29.7 µM; in [13], 20.2 µM. Further, the TGI is 6.23 µM in [14]; more than 100 µM in [15]; 62 µM in assay [16]; 35.9 µM in assay [17]; more than 100 µM in assay [18]; more than 100 µM in [19]. For the same compound, the TGI in assay [20] was found to be 39.9 µM.

These data come from PubChem BioAssay (NCI).
